This note sets out measurements from patent US20200268829A1, “METHODS AND COMPOSITIONS FOR INHIBITING METASTASES OF AN ENDOTHELIN B RECEPTOR EXPRESSING CANCER” (ENB Therapeutics, Inc., priority 2020, published 2020).

“Also recorded” adds a separate entry of the source. Bounds are passed on as bounds.

Data set [1] relates to A375 human melanoma cells. The data set can be described thus: Subcutaneous A375 human melanoma xenograft. Conditions: A375 sc xenograft; Dabrafenib 100 mg/Kg PO daily, alone or with BQ788 600 ng IP TIW; p<0.05. It is filed as in vivo, Nu/J nude mice. The procedure: FIG. 7. BQ788 synergizes with Dabrafenib in vivo. A375 human melanoma cells were implanted subcutaneously into the rear flank of Nu/J nude mice and allowed to grow to 150 mm3-200 mm3 prior to randomization and initiation of treatment. The mice received the following treatments: (1) vehicle (n=8), (2) Dabrafenib 100 mg/Kg PO daily (n=5), and (3) Dabrafenib+BQ788 600 ng IP TIW (n=5).
A375 human melanoma cells (3×10^6) were implanted subcutaneously into the rear flank of Nu/J nude mice and allowed to grow to 150 mm3-200 mm3 prior to randomization and initiation of treatment. The treatment groups were as follows: (1) vehicle (n=8), Dabrafenib 100 mg/Kg PO daily (n=5), (2) Dabrafenib+BQ788 600 ng IP 3×per week (n=5).

Data set [2] is described as follows: Body weight under ascending intranasal BQ788 doses over 42 days. It is filed as in vivo, athymic nude mice. Conditions: BQ788 alone, intranasally in 20% DMSO, ascending doses over 42 days. How it is done:
FIG. 9. ETAR antagonist and Niacinamide mitigate weight loss from BQ788. Six week old athymic nude mice were administered the ETBR antagonist BQ788 intranasally in 20% DMSO at the indicated ascending doses over a period of 42 days. One group was additionally administered the ETAR antagonist Macitentan orally at a dose of 5 mg/kg daily. The drinking water of these mice was supplemented with the B vitamin niacinamide at a concentration of 0.3 mg/mL. […] Co-administration of the ETAR antagonist Macitentan with niacinamide supplementation mitigated this weight loss. […] Co-administration of ETAR antagonists and niacinamide with ETBR antagonists mitigated the adverse effects of ETBR antagonists when administered for therapeutic purposes.
Six week old athymic nude mice (n=3 per group) were administered the ETBR antagonist BQ788 intranasally in 20% DMSO at the indicated ascending doses over a period of 42 days. One group was additionally administered the ETAR antagonist Macitentan orally at a dose of 5 mg/kg daily. The drinking water of these mice was supplemented with the B vitamin niacinamide at a concentration of 0.3 mg/mL. […] Co-administration of the ETAR antagonist Macitentan with niacinamide supplementation mitigated this weight loss. […]

The subject of data set [3] is SKMEL28 human melanoma cells. Put plainly: SKMEL28 human melanoma xenograft in mice: tumor weight, lung metastases, apoptosis. It is filed as in vivo. How it is done:
Mice were implanted with 1×10^6 SKMEL28 human melanoma cells. Tumors were established for 10 days until palpable then 120 ng (˜60 ug/kg) BQ788 dissolved in DMSO was injected IP 3×per week×6 weeks. Mice were then sacrificed and lungs harvested and tumors weighed. A 75% reduction in tumor weight was observed.

The next data set deals with T1, ETBR (Homo sapiens, UniProt P24530).
T1 sequence (P24530 27-442): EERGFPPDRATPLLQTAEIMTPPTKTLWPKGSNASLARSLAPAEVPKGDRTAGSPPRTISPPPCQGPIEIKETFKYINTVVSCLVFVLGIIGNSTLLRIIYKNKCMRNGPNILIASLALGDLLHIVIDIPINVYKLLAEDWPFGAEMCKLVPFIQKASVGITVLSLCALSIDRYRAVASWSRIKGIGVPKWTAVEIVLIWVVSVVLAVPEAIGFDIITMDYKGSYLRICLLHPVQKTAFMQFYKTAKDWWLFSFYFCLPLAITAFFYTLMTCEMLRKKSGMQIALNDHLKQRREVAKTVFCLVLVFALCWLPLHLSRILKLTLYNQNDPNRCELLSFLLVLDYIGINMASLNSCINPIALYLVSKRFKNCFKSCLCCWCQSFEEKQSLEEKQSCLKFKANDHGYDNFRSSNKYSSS
The data set can be described thus: ETBR antagonist potency (IC50, Ki); no method given. It is filed as binding. Conditions: for IC50: for BQ788 printed with 'potent inhibitor of ETBR-related melanoma cell growth'.

Data set [4] concerns melanoma cell lines overexpressing ETBR (brain metastases). Put plainly: Mouse melanoma brain metastasis model, xenografts of melanoma cell lines overexpressing ETBR. It is filed as in vivo, mice. The note with it: 60 mg/kg/day. How it is done:
FIGS. 5A, 5B, 5C, 5D, and 5E. ETBR antagonist inhibits melanoma brain metastasis in mice. […] In this study, lentiviral vectors were used to overexpress ETBR in melanoma cell lines, which were in turn used to implant xenografts in mice.
A192621 was administered at a dose of 60 mg/kg/day using a mouse melanoma model. […] In this study, lentiviral vectors were used to overexpress ETBR in melanoma cell lines, which were in turn used to implant xenografts in mice. In this study, lentiviral vectors were used to overexpress ETBR in melanoma cell lines, which were in turn used to implant xenografts in mice.

Consider `CC(C)(C)c1nc(-c2cccc(NS(=O)(=O)c3c(F)cccc3F)c2F)c(-c2ccnc(N)n2)s1` [Dabrafenib], for which the tumor growth result in data set [1] is given as “retarded the growth of tumors; also recorded: retarded tumor growth”.
In the case of `CCCC[C@@H](NC(=O)[C@@H](Cc1cn(C(=O)OC)c2ccccc12)NC(=O)[C@H](CC(C)(C)C)NC(=O)N1[C@H](C)CCC[C@@H]1C)C(=O)O` [BQ788], the “average weight loss relative to baseline body weight by the end of the study” value in data set [2] amounted to 5%. Moreover, the “reduction in tumor weight” value in data set [3] (SKMEL28 xenograft mice, 120 ng (~60 ug/kg) BQ788 in DMSO IP 3x per week x 6 weeks) is on record as 75%. In addition, the “clearance of lung metastases” value in data set [3] (SKMEL28 xenograft mice, 120 ng (~60 ug/kg) BQ788 in DMSO IP 3x per week x 6 weeks, vs control mice) was above 95%. The “apoptosis in melanoma tumor cells” value in data set [3] (melanoma tumor cells) is given as “induces apoptosis”. Besides, on ETBR, affinity was put at a Ki of 17.8 nM and half-maximal inhibition (IC50) required 1.2 nM.
On to `CCCOc1ccc([C@H]2[C@H](C(=O)O)[C@@H](c3ccc4c(c3)OCO4)CN2CC(=O)Nc2c(CC)cccc2CC)cc1` [A192621, (2R,3R,4S)-4-(1,3-benzodioxol-5-yl)-1-[2-(2,6-diethylanilino)-2-oxoethyl]-2-(4-propoxyphenyl)pyrrolidine-3-carboxylic acid], for which, in data set [4], the CNS melanoma tumors result is on record as “shrinks CNS melanoma tumors”, the brain melanoma metastases entry is recorded as “shrinks brain melanoma metastases” and the survival entry is listed as “increases survival”. At ETBR, this compound had a Ki of 8.8 nM and an IC50 of 4.5 nM.
